Test results from PubChem BioAssay AID1963986 (Molecular Pharmacology Branch, DTP, NCI, 2024).

System: 171881-019-R-J1-PDC tumor spheroid viability
Assay: Anticancer human tumor 171881-019-R-J1-PDC patient-derived invasive breast carcinoma cell line growth inhibition [PI3K]
Settings: spheroids with HUVEC and MSC; for viability, T/C: stronger effect = lower value; active = viability on the fitted dose curve at most 10% of control; inactive = the rest
Procedure, shortened: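 Combination activity was assessed by viability in multicellular tumor spheroids carrying HUVEC and MSC components. Agents were tested with PI3K inhibitors from a Cmax-based top dose (or 10 microM) downward in half-log increments.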

[1] = curve of first compound, second compound 0.00316 µM
[2] = curve of first compound, second compound 0.01 µM
[3] = curve of first compound, second compound 0.0316 µM
[4] = curve of first compound, second compound 0.1 µM
[5] = curve of first compound, second compound 0.316 µM
[6] = curve of first compound, second compound 1 µM
[7] = second compound 0.00316 µM, first compound 0.0316 µM
[8] = second compound 0.00316 µM, first compound 0.1 µM
[9] = second compound 0.00316 µM, first compound 0.316 µM
[10] = second compound 0.00316 µM, first compound 1 µM
[11] = second compound 0.01 µM, first compound 0.0316 µM
[12] = second compound 0.01 µM, first compound 0.1 µM
[13] = second compound 0.01 µM, first compound 0.316 µM
[14] = second compound 0.01 µM, first compound 1 µM
[15] = second compound 0.0316 µM, first compound 0.0316 µM
[16] = second compound 0.0316 µM, first compound 0.1 µM
[17] = second compound 0.0316 µM, first compound 0.316 µM
[18] = second compound 0.0316 µM, first compound 1 µM
[19] = second compound 0.1 µM, first compound 0.0316 µM
[20] = second compound 0.1 µM, first compound 0.1 µM
[21] = second compound 0.1 µM, first compound 0.316 µM
[22] = second compound 0.1 µM, first compound 1 µM
[23] = second compound 0.316 µM, first compound 0.0316 µM
[24] = second compound 0.316 µM, first compound 0.1 µM
[25] = second compound 0.316 µM, first compound 0.316 µM
[26] = second compound 0.316 µM, first compound 1 µM
[27] = second compound 1 µM, first compound 0.0316 µM
[28] = second compound 1 µM, first compound 0.1 µM
[29] = second compound 1 µM, first compound 0.316 µM
[30] = second compound 1 µM, first compound 1 µM
[31] = compound alone, run of 05/08/2023
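Note: spheroids exposed to compound for 7 days before viability read.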
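Throughout, for viability, T/C: 100% = DMSO vehicle-treated spheroids.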

CCN1CCN(Cc2ccc(Nc3ncc(F)c(-c4cc(F)c5nc(C)n(C(C)C)c5c4)n3)nc2)CC1 + COc1c(OCCCN2CCOCC2)ccc2c3n(c(=NC(=O)c4cnc(N)nc4)nc12)CCN3
< 3.16 nM: IC50 [3] | IC50 [4] | IC50 [5] | IC50 [6]
active: viability, T/C (second compound 0.316 µM, first compound 0.00316 µM) 2.23% | viability, T/C (second compound 0.316 µM, first compound 0.01 µM) 2.11% | viability, T/C [23] 2.24% | viability, T/C [24] 2.94% | viability, T/C [25] 4.39% | viability, T/C [26] 7.79% | viability, T/C (second compound 1 µM, first compound 0.00316 µM) 0.86% | viability, T/C (second compound 1 µM, first compound 0.01 µM) 1.08% | viability, T/C [27] 1.81% | viability, T/C [28] 1.03% | viability, T/C [29] 1.58% | viability, T/C [30] 2.28%
inactive: viability, T/C (second compound 0.00316 µM, first compound 0.00316 µM) 71.9% | viability, T/C (second compound 0.00316 µM, first compound 0.01 µM) 73.1% | viability, T/C [7] 83.8% | viability, T/C [8] 80.4% | viability, T/C [9] 93.8% | viability, T/C [10] 99.6% | viability, T/C (second compound 0.01 µM, first compound 0.00316 µM) 48.9% | viability, T/C (second compound 0.01 µM, first compound 0.01 µM) 56.9% | viability, T/C [11] 53.6% | viability, T/C [12] 63.8% | viability, T/C [13] 69% | viability, T/C [14] 83.2% | viability, T/C (second compound 0.0316 µM, first compound 0.00316 µM) 27.4% | viability, T/C (second compound 0.0316 µM, first compound 0.01 µM) 31.5% | viability, T/C [15] 33.8% | viability, T/C [16] 36.9% | viability, T/C [17] 44.6% | viability, T/C [18] 50.6% | viability, T/C (second compound 0.1 µM, first compound 0.00316 µM) 10.5% | viability, T/C (second compound 0.1 µM, first compound 0.01 µM) 10.2% | viability, T/C [19] 12.2% | viability, T/C [20] 12.8% | viability, T/C [21] 16% | viability, T/C [22] 23.8%
> 1000 nM: IC50 [1] | IC50 [2]

C#Cc1c(F)ccc2cc(O)cc(-c3ncc4c(N5CC6CCC(C5)N6)nc(OCC56CCCN5CC(F)C6)nc4c3F)c12 (stereo not drawn) + COc1c(OCCCN2CCOCC2)ccc2c3n(c(=NC(=O)c4cnc(N)nc4)nc12)CCN3
< 31.6 nM: IC50 [2] | IC50 [3] | IC50 [4] | IC50 [5] | IC50 [6]
active: viability, T/C (second compound 0.01 µM, first compound 10 µM) 9.69% | viability, T/C [18] 6.62% | viability, T/C (second compound 0.0316 µM, first compound 3.16 µM) 5.52% | viability, T/C (second compound 0.0316 µM, first compound 10 µM) 4.3% | viability, T/C [19] 6.23% | viability, T/C [20] 4.84% | viability, T/C [21] 3.8% | viability, T/C [22] 3.03% | viability, T/C (second compound 0.1 µM, first compound 3.16 µM) 2.87% | viability, T/C (second compound 0.1 µM, first compound 10 µM) 1.74% | viability, T/C [23] 1.68% | viability, T/C [24] 1.75% | viability, T/C [25] 1.34% | viability, T/C [26] 1.08% | viability, T/C (second compound 0.316 µM, first compound 3.16 µM) 0.99% | viability, T/C (second compound 0.316 µM, first compound 10 µM) 0.17% | viability, T/C [27] 0.8% | viability, T/C [28] 0.83% | viability, T/C [29] 0.78% | viability, T/C [30] 0.83% | viability, T/C (second compound 1 µM, first compound 3.16 µM) 0.68% | viability, T/C (second compound 1 µM, first compound 10 µM) 0.29%
inactive: viability, T/C [7] 53.6% | viability, T/C [8] 48.2% | viability, T/C [9] 30% | viability, T/C [10] 20.7% | viability, T/C (second compound 0.00316 µM, first compound 3.16 µM) 15.8% | viability, T/C (second compound 0.00316 µM, first compound 10 µM) 12.8% | viability, T/C [11] 38.2% | viability, T/C [12] 31.8% | viability, T/C [13] 20.4% | viability, T/C [14] 15.1% | viability, T/C (second compound 0.01 µM, first compound 3.16 µM) 10.3% | viability, T/C [15] 18.9% | viability, T/C [16] 14.8% | viability, T/C [17] 10%
61.3 nM: IC50 [1]

CC(Nc1ccc2c(c1)OCCn1cc(N3C(=O)OCC3C(F)F)nc1-2)C(N)=O (stereo not drawn)
52.5 nM [middle of 8 runs]: IC50 [31]
inactive: viability, T/C (compound 0.00316 µM) 94.1% [middle of 8 runs] | viability, T/C (compound 0.01 µM) 83.8% [middle of 8 runs] | viability, T/C (compound 0.0316 µM) 56.6% [middle of 8 runs] | viability, T/C (compound 0.1 µM) 40.9% [middle of 8 runs] | viability, T/C (compound 0.316 µM) 28% [middle of 8 runs] | viability, T/C (compound 1 µM) 21.4% [middle of 8 runs]

Cc1nc(NC(=O)N2CCCC2C(N)=O)sc1-c1ccnc(C(C)(C)C(F)(F)F)c1 (stereo not drawn)
active: viability, T/C (compound 10 µM) 3.58% [middle of 7 runs]
475 nM [middle of 7 runs]: IC50 [31]
inactive: viability, T/C (compound 0.0316 µM) 89.2% [middle of 8 runs] | viability, T/C (compound 0.1 µM) 86.3% [middle of 8 runs] | viability, T/C (compound 0.316 µM) 57.4% [middle of 8 runs] | viability, T/C (compound 1 µM) 33.8% [middle of 8 runs] | viability, T/C (compound 3.16 µM) 14.5% [middle of 8 runs]
